Assays:
SHSY5Y cells [1] = assay: Immunoblotting analysis of mitochondrial, synaptic proteins and Aβ; type: cell-based, Human
Excerpt: Immunoblotting analysis. To determine the effects of Aβ on mitochondrial proteins and the useful effects of DDQ at the protein level, the inventors quantified mitochondrial proteins in five independent treatments of cells with Aβ, DDQ, Aβ+DDQ and DDQ+Aβ.
DDQ reduces Aβ and Drp1 levels. To determine whether DDQ reduces Aβ and Drp1 levels, the inventors conducted immunoblotting analysis, in cells treated with DDQ, Aβ+DDQ and DDQ+Aβ.
FIG. 3 illustrates the experimental strategy of the cell culture work and including treatments. The cells were grown in a medium (1:1 DMEM and F12, 10% FBS, lx penicillin, and streptomycin) at 37° C. in a humified incubator with a 5% CO2 environment. After seeding were allowed to grow for 24-48 hrs or until 80% confluence in six-well plates and used for experiments. The inventors used five different groups of cells—(1) untreated SHSY5Y cells; (2) SHSY5Y cells treated with DDQ (250 nM final concentration) for 24 hrs; (3) SHSY5Y cells incubated with Aβ peptide 1-42 (20 uM final concentration) for 6 hrs; (4) SHSY5Y cells treated Aβ for 6 hrs+DDQ for 24 hrs and (5) SHSY5Y cells treated DDQ for 24 hrs and Aβ for 6 hrs. Half a million SHSY5Y cells were suspended per well into six-well plates. The inventors used Aβ peptide 1-42 and DDQ 250 nM in the experiments. After treatments, the inventors harvested cells, conducted experiments to measure the levels mRNA using Sybr-Green based real-time RT-PCR, proteins using immunoblotting and immunofluorescence analysis and cell viability using MTT assay. The inventors counted the number of mitochondria by electron microscopy.

[2] = molecular target: T1, interaction of Aβ with Drp1 (Homo sapiens, UniProt O00429); assay: Co-immunoprecipitation of Aβ and Drp1 in SHSY5Y cells; type: cell-based
T1 construct: SHSY5Y cells incubated with Aβ peptide 1-42 (20 uM final concentration); Anaspec (Aβ 1-42 peptide); host or cells: SHSY5Y human neuroblastoma cells
T1 sequence (O00429 whole entry): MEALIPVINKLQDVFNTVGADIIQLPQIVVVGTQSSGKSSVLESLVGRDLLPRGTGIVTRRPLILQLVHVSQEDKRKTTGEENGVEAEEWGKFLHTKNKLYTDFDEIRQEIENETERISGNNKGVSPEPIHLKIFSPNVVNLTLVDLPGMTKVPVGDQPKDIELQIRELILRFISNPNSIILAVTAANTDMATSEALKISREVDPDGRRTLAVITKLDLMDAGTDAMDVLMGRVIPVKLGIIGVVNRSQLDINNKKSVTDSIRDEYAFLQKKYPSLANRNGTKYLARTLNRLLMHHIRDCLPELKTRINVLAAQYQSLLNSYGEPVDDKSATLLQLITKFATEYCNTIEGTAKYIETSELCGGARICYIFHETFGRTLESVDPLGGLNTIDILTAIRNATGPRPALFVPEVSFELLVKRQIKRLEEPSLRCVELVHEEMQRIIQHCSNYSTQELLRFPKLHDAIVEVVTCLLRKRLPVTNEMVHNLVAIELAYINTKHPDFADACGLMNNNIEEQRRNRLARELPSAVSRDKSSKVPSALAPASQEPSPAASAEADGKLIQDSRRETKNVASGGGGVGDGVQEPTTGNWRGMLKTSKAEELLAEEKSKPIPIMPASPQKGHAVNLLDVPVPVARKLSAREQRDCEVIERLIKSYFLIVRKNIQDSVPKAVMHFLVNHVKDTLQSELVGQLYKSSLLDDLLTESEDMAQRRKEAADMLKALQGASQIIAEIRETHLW
Description: Co-immunoprecipitation and immunoblotting analysis using DDQ treated SHSY5Y cells+Aβ. To determine whether DDQ reduces the interaction of Aβ with Drp1 in Aβ incubated cells, the inventors performed co-immunoprecipitation analysis using the Drp1 antibody, and immunoblotting analysis using Aβ recognizing 6E10 antibody and protein lysates of DDQ pre-treated, DDQ post-treated and Aβ incubated cells.
SHSY5Y cells, mutant APPSwe/Ind cells and co-immunoprecipitation analysis. SHSY5Y cells: To determine whether Aβ interact with Drp1, the inventors used protein lysates from Aβ incubated (DDQ pre-treated, post-treated and untreated) SHSY5Y cells.
The inventors performed co-immunoprecipitation (co-IP) assays using the Dynabeads Kit for Immunoprecipitation (Invitrogen). Briefly, 50 μL of Dynabeads containing protein G was incubated with 10 μg 6E10 or 10 μg of the Drp1 antibodies (both mono- and polyclonal antibodies; Santa Cruz), with rotation, for 1 h at room temperature. The inventors used all the reagents and buffers provided in the kit. Details of antibodies used for co-IP and western blotting are given Table 5. The Dynabeads-Aβ complex was washed three times with a washing buffer and was then incubated overnight with 400 μg of protein at 4° C., with rotation. […]

SHSY5Y cells [3] = assay: Transmission electron microscopy, mitochondrial number and length; type: cell-based, Human
Excerpt: Transmission electron microscopy. To determine the effects of DDQ on mitochondrial number and morphology, and any rescual effects of DDQ on mitochondria in the untreated and Aβ treated cells, the inventors used TEM on untreated, DDQ, Aβ+DDQ and DDQ+Aβ, treated SHSY5Y cells.
Transmission electron microscopy. To determine the effects of DDQ on the numbers of mitochondria and any rescue effects of DDQ on mitochondria in the mutant SHSY5Y neurons, the inventors used TEM on untreated and treated SHSY5Y cells (as shown in FIG. 3). [Batches 1-5]. All SHSY5Y cells batches 1-5 were fixed in […] sodium cacodylate (pH 7.2), 2.5% glutaraldehyde, 1.6% paraformaldehyde, 0.064% picric acid and 0.1% ruthenium red. They were gently washed and post-fixed for 1 h in 1% osmium tetroxide plus […] potassium ferricyanide, in 100 mm sodium cacodylate, pH 7.2. After a thorough rinsing in water, the SHSY5Y cells were dehydrated, infiltrated overnight in 1:1 acetone:Epon 812 and infiltrated for 1 h with 100% Epon 812 resin. They were then embedded in the resin. After polymerization, 60 to 80 nm thin sections were cut on a Reichert ultramicrotome and stained for 5 min in lead citrate. They were rinsed and post-stained for 30 min in uranyl acetate and then were rinsed again and dried. Electron microscopy was performed at 60 kV on a Philips Morgagne TEM equipped with a CCD, and images were collected at magnifications of ×1000-37 000. The numbers of mitochondria were counted in the SHSY5Y cells batches 1-5, and statistical significance was determined, using one-way ANOVA.

[4] = Aβ + DDQ (Aβ1-42 20 μM 6 hrs, then DDQ 24 hrs) vs untreated cells
[5] = Aβ + DDQ (Aβ1-42 6 hrs, then DDQ 24 hrs) vs Aβ treated cells
[6] = DDQ 250 nM 24 hrs vs untreated cells
[7] = DDQ + Aβ (DDQ 24 hrs, then Aβ1-42 6 hrs) vs Aβ treated cells
[8] = DDQ + Aβ (DDQ 24 hrs, then Aβ1-42 6 hrs) vs untreated cells
[9] = DDQ post-treated (Aβ + DDQ) vs cells treated with Aβ alone
[10] = DDQ-pre treated (DDQ + Aβ) vs cells treated with Aβ alone

## CCOP(=O)(OCC)C(NCCc1ccc(O)c(O)c1)c1ccnc2ccccc12 (centres unmarked) [DDQ, diethyl(3,4-dihydroxyphenethylamine)(quinolin-4-yl)methylphosphonate]
SHSY5Y cells [1]; [4]
  Drp1 protein level: reduced
  Fis1 protein level: reduced
  Mfn1 protein level: significantly increased
  PSD95 protein level: significantly increased
  synaptophysin protein level: significantly increased
SHSY5Y cells [1]; [5]
  Drp1 protein level: significantly reduced levels
  Mfn1 protein level: increased
  Mfn2 protein level: increased
  Nrf1 protein level: increased
  Nrf2 protein level: increased
  PSD95 protein level: increased
  TFAM protein level: increased
  synaptophysin protein level: increased
SHSY5Y cells [1]; Aβ + DDQ (Aβ1-42 6 hrs, then DDQ 24 hrs) vs cells treated with Aβ alone
  4 kDa Aβ levels: reduced levels
SHSY5Y cells [1]; [6]
  Drp1 protein level: significantly reduced
  Fis1 protein level: significantly reduced
  Mfn2 protein level: significantly increased
  Mitochondrial biogenesis protein levels: significantly increased
SHSY5Y cells [1]; [7]
  Drp1 protein level: significantly reduced levels
  Fis1 protein level: significantly reduced levels
  Mfn1 protein level: increased
  Mfn2 protein level: increased
  Nrf1 protein level: significantly increased levels
  Nrf2 protein level: significantly increased levels
  PSD95 protein level: increased
  TFAM protein level: significantly increased levels
  synaptophysin protein level: increased
SHSY5Y cells [1]; DDQ + Aβ (DDQ 24 hrs, then Aβ1-42 6 hrs) vs cells treated with Aβ alone
  4 kDa Aβ levels: reduced levels
SHSY5Y cells [1]; [8]
  Drp1 protein level: Decreased levels
[2]; DDQ post-treated (Aβ + DDQ) vs Aβ incubated cells
  interaction between Aβ and Drp1: reduced interaction
[2]; DDQ pre-treated (DDQ + Aβ) vs Aβ incubated cells
  interaction between Aβ and Drp1: reduced interaction
SHSY5Y cells [3]; [4]
  mitochondrial length: not significantly changed
  number of mitochondria: approximately equal number
SHSY5Y cells [3]; [6]
  mitochondrial length: significantly increased
  number of mitochondria: reduced
SHSY5Y cells [3]; [8]
  mitochondrial length: not significantly changed
  number of mitochondria: approximately equal number
SHSY5Y cells [3]; [9]
  mitochondrial length: significantly increased
  number of mitochondria: significantly reduced
SHSY5Y cells [3]; [10]
  mitochondrial length: significantly increased
  number of mitochondria: significantly reduced

Reference: US12208108B2, “Drug targets of delayed aging and human brain diseases” (Texas Tech University System, priority 2016, dated 2025)
